Experimental findings from patent publication US8865734B2 (priority 2010, dated 2014) are described below.

The subject of the first assay is in vitro grown Mycobacteria (M. tuberculosis). Kind of assay: QUM: Quantification of in vitro grown Mycobacteria (in vitro growth fluorescence assay). The class given is cell-based. Conditions: MIC, 80% bacterial growth inhibition; in vitro growth. An excerpt:
A 120,000 small molecule compound library was screened using a validated phenotypic cell-based assay (WO2010003533A2). Active compounds from the primary screen were confirmed via dose response in the intracellular (QIM) assay and an in vitro (QUM) assay, wherein the abbreviation “QIM” stands for Quantification of Intracellular Mycobacteria and the abbreviation “QUM” stands for Quantification of in vitro grown Mycobacteria. […] The MIC is the minimum concentration of compound required to obtain 80% bacterial growth inhibition.
The imidazopyridine compounds (scaffolds Ia and Ib; see Table 1) underwent derivatization according to the methods outlined below (Schemes 1-13). Resulting derivatives were examined for inhibitory activity (MIC) using the assays described above (Example 1) and the results are summarized in Table 1.
On to “6-Chloro-N-(4-(4-(cyclopentyloxymethyl)piperidin-1-yl)benzyl)-2-ethylimidazo[1,2-a]pyridine-3-carboxamide [Compound 293]”, for which the “QUM (μM)” value is recorded as “+++ (+++ indicates <1 uM)”.

The assay is the same for the next values; noted with them: Mycobacterium tuberculosis; MIC, 80% bacterial growth inhibition; in vitro growth; read-out: QUM.
Consider `CCc1nc2cc(OC)ccn2c1C(=O)NCc1ccc(N2CCN(c3ccc(F)cc3)CC2)cc1` [Compound 114, 2-Ethyl-N-(4-(4-(4-fluorophenyl)piperazin-1-yl)benzyl)-7-methoxyimidazo[1,2-a]pyridine-3-carboxamide], for which the MIC is under 1 µM.
For the compound `CCc1nc2c(OC)cccn2c1C(=O)NCc1ccc(N2CCN(c3ccc(F)cc3)CC2)cc1` [Compound 115, 2-Ethyl-N-(4-(4-(4-fluorophenyl)piperazin-1-yl)benzyl)-8-methoxyimidazo[1,2-a]pyridine-3-carboxamide], the MIC is under 1 µM.
On to `CCc1nc2cc(Cl)ccn2c1C(=O)NCc1ccc(N2CCC(COC3CCCC3)CC2)cc1` [Compound 169, 7-Chloro-N-(4-(4-(cyclopentyloxymethyl)piperidin-1-yl)benzyl)-2-ethylimidazo[1,2-a]pyridine-3-carboxamide], for which the MIC is under 1 µM.
In the case of `CCc1nc2cc(Cl)ccn2c1C(=O)NCc1ccc(N2CCC(COC(F)F)CC2)cc1` [Compound 183, 7-Chloro-N-(4-(4-((difluoromethoxy)methyl)piperidin-1-yl)benzyl)-2-ethylimidazo[1,2-a]pyridine-3-carboxamide], the MIC is under 1 µM.
As for `CCc1nc2ccc(C)cn2c1C(=O)NCc1ccc(N2CCOCC2)cc1` [Compound 219, 2-ethyl-6-methyl-N-(4-morpholinobenzyl)imidazo[1,2-a]pyridine-3-carboxamide], the MIC was under 1 µM.
For `CCc1nc2ccc(Cl)cn2c1C(=O)NCc1ccc(N2CCC(C(=O)O)CC2)cc1` [Compound 220, 1-(4-((6-Chloro-2-ethylimidazo[1,2-a]pyridine-3-carboxamido)methyl)phenyl)piperidine-4-carboxylic acid], the MIC was under 1 µM.
`CCc1nc2cc(Cl)ccn2c1C(=O)NCc1ccc(N2CC3CC=CCC3C2)cc1` (centres unmarked) [Compound 223, 7-Chloro-N-(4-(3a,4-dihydro-1H-isoindol-2(3H,7H,7aH)-yl)benzyl)-2-ethylimidazo[1,2-a]pyridine-3-carboxamide]: the MIC is under 1 µM.
`CCc1nc2cc(Cl)ccn2c1C(=O)NCc1ccc(N2CC3CCCCC3C2)cc1` (centres unmarked) [Compound 224, N-(4-(1H-isoindol-2(3H,3aH,4H,5H,6H,7H,7aH)-yl)benzyl)-7-chloro-2-ethylimidazo[1,2-a]pyridine-3-carboxamide]: the MIC is under 1 µM.
`CCc1nc2cc(Cl)ccn2c1C(=O)NCc1ccc(-n2cc3c(c2)CCCC3)cc1` [Compound 225, 7-Chloro-2-ethyl-N-(4-(4,5,6,7-tetrahydro-2H-isoindol-2-yl)benzyl)imidazo[1,2-a]pyridine-3-carboxamide]: the MIC is under 1 µM.
Regarding `CCc1nc2cc(C)ccn2c1C(=O)NCc1ccc(OC(F)(F)F)cc1` [Compound 249, 2-Ethyl-7-methyl-N-(4-(trifluoromethoxy)benzyl)imidazo[1,2-a]pyridine-3-carboxamide], the MIC was under 1 µM.
Still for that read-out and setting: with `CCc1nc2cc(Br)ccn2c1C(=O)NCc1ccc(OC(F)(F)F)cc1` [Compound 250, 7-Bromo-2-ethyl-N-(4-(trifluoromethoxy)benzyl)imidazo[1,2-a]pyridine-3-carboxamide] the figure was under 1 µM; with `CCc1nc2c(F)cccn2c1C(=O)NCc1ccc(OC(F)(F)F)cc1` [Compound 251, 2-Ethyl-8-fluoro-N-(4-(trifluoromethoxy)benzyl)imidazo[1,2-a]pyridine-3-carboxamide], under 1 µM.
Still for that read-out and setting: under `CCc1nc2cc(Cl)ccn2c1C(=O)NCc1ccc(-c2ccc(C=O)cc2)cc1` [Compound 252, 7-Chloro-2-ethyl-N-((4′-formylbiphenyl-4-yl)methyl)imidazo[1,2-a]pyridine-3-carboxamide] stands under 1 µM; under `CCc1nc2ccc(C)cn2c1C(=O)NCc1ccc(Oc2ccc(OC(F)(F)F)cc2)cc1` [Compound 255, 2-Ethyl-6-methyl-N-(4-(4-(trifluoromethoxy)phenoxy)benzyl)imidazo[1,2-a]pyridine-3-carboxamide], under 1 µM; under `CCc1nc2cc(Cl)ccn2c1C(=O)OCc1ccc(Oc2ccc(F)cc2)cc1` [Compound 264], under 1 µM.
Turning to `CCc1nc2ccccn2c1C(=O)NCc1ccc(N2CCC(c3ccc(F)cc3)CC2)cc1` [Compound 285, 2-Ethyl-N-(4-(4-(4-fluorophenyl)piperidin-1-yl)benzyl)imidazo[1,2-a]pyridine-3-carboxamide], the MIC is under 1 µM.
Take `CCc1nc2ccc(Cl)cn2c1C(=O)NCc1ccc(N2CCC(c3ccc(OC(F)(F)F)cc3)CC2)cc1` [Compound 289, 6-Chloro-2-ethyl-N-(4-(4-(4-(trifluoromethoxy)phenyl)piperidin-1-yl)benzyl)imidazo[1,2-a]pyridine-3-carboxamide]: the MIC was under 1 µM.
On to `CCc1nc2cc(Cl)ccn2c1C(=O)NCc1ccc(N2CCC(c3ccc(OC(F)(F)F)cc3)CC2)cc1` [Compound 290, 7-Chloro-2-ethyl-N-(4-(4-(4-(trifluoromethoxy)phenyl)piperidin-1-yl)benzyl)imidazo[1,2-a]pyridine-3-carboxamide], for which the MIC is under 1 µM.
`CCOC(=O)C1CCN(c2ccc(CNC(=O)c3c(CC)nc4ccc(Cl)cn34)cc2)CC1` [Compound 300, Ethyl 1-(4-((6-chloro-2-ethylimidazo[1,2-a]pyridine-3-carboxamido)methyl)phenyl)piperidine-4-carboxylate]: the MIC was under 1 µM.
Same read-out and setting: with `CCOC(=O)C1CCN(c2ccc(CNC(=O)c3c(CC)nc4cc(Cl)ccn34)cc2)CC1` [Compound 301, Ethyl 1-(4-((7-chloro-2-ethylimidazo[1,2-a]pyridine-3-carboxamido)methyl)phenyl)piperidine-4-carboxylate] the figure was under 1 µM.
`CCc1nc2cc(Cl)ccn2c1C(=O)NCc1ccc(N2CCC(C(=O)O)CC2)cc1` [Compound 302, 1-(4-((7-Chloro-2-ethylimidazo[1,2-a]pyridine-3-carboxamido)methyl)phenyl)piperidine-4-carboxylic acid]: the MIC is under 1 µM.
In the case of `CCc1nc2c(Br)cccn2c1C(=O)NCc1ccc(N2CCN(c3ccc(F)cc3)CC2)cc1` [Compound 305, 8-Bromo-2-ethyl-N-(4-(4-(4-fluorophenyl)piperazin-1-yl)benzyl)imidazo[1,2-a]pyridine-3-carboxamide], the MIC was under 1 µM.
With `CCc1nc2c(-c3ccncc3)cccn2c1C(=O)NCc1ccc(N2CCN(c3ccc(F)cc3)CC2)cc1` [Compound 312, 2-Ethyl-N-(4-(4-(4-fluorophenyl)piperazin-1-yl)benzyl)-8-(pyridin-4-yl)imidazo[1,2-a]pyridine-3-carboxamide], the MIC was under 1 µM.
On to `CCc1nc2ccc(OC)cn2c1C(=O)NCc1ccc(N2CCOCC2)cc1` [Compound 313], for which the MIC was under 1 µM.
Still for that read-out and setting: under `CCc1nc2cc(OC)ccn2c1C(=O)NCc1ccc(N2CCOCC2)cc1` [Compound 314, 2-Ethyl-7-methoxy-N-(4-morpholinobenzyl)imidazo[1,2-a]pyridine-3-carboxamide] stands under 1 µM.
Still for that read-out and setting: under `CCc1nc2c(OC)cccn2c1C(=O)NCc1ccc(N2CCOCC2)cc1` [Compound 318, 2-Ethyl-8-methoxy-N-(4-morpholinobenzyl)imidazo[1,2-a]pyridine-3-carboxamide] stands under 1 µM; under `CCc1nc2c(Br)cccn2c1C(=O)NCc1ccc(N2CCOCC2)cc1` [Compound 320, 8-Bromo-2-ethyl-N-(4-morpholinobenzyl)imidazo[1,2-a]pyridine-3-carboxamide], under 1 µM.
Still for that read-out and setting: with `CCc1nc2c(-c3ccncc3)cccn2c1C(=O)NCc1ccc(N2CCOCC2)cc1` [Compound 327, 2-Ethyl-N-(4-morpholinobenzyl)-8-(pyridin-4-yl)imidazo[1,2-a]pyridine-3-carboxamide] the figure was over 20 µM.
Take `CCc1nc2ccc(Cl)cn2c1C(=O)NCc1ccc(C(=O)NCc2ccc(C(=O)N3CCOCC3)cc2)cc1` [Compound 332, 6-Chloro-2-ethyl-N-(4-((4-(morpholine-4-carbonyl)benzyl)carbamoyl)benzyl) imidazo[1,2-a]pyridine-3-carboxamide]: the MIC is over 20 µM.
The same measure, in the same setting: with `CCc1nc2cc(Cl)ccn2c1C(=O)NCc1ccc(C(=O)N2CCOCC2)cc1` [Compound 333, 7-Chloro-2-ethyl-N-(4-(morpholine-4-carbonyl)benzyl)imidazo[1,2-a]pyridine-3-carboxamide] the figure was over 20 µM; with `CCc1nc2ccccn2c1C(=O)NCc1ccc2oc(-c3ccc(F)cc3)nc2c1` [Compound 334, 2-Ethyl-N-((2-(4-fluorophenyl)benzo[d]oxazol-5-yl)methyl)imidazo[1,2-a]pyridine-3-carboxamide], under 1 µM.
Still for that read-out and setting: with `CCc1nc2ccc(Cl)cn2c1C(=O)NCc1ccc2oc(-c3ccc(F)cc3)nc2c1` [Compound 335, 6-Chloro-2-ethyl-N-((2-(4-fluorophenyl)benzo[d]oxazol-5-yl)methyl)imidazo[1,2-a]pyridine-3-carboxamide] the figure was under 1 µM; with `CCc1nc2cc(Cl)ccn2c1C(=O)NCc1ccc2oc(-c3ccc(F)cc3)nc2c1` [Compound 336, 7-Chloro-2-ethyl-N-((2-(4-fluorophenyl)benzo[d]oxazol-5-yl)methyl)imidazo[1,2-a]pyridine-3-carboxamide], under 1 µM; with `CCc1nc2ccc(Cl)cn2c1C(=O)NCc1ccc(N2CCC(c3ccc(Cl)cc3)CC2)cc1` [Compound 337, 6-Chloro-N-(4-(4-(4-chlorophenyl)piperidin-1-yl)benzyl)-2-ethylimidazo[1,2-a]pyridine-3-carboxamide], under 1 µM.
